Measurements reported in the NIST ThermoML archive (doi:10.1016/j.tca.2004.09.012).
Numbers after ± are expanded uncertainties.

Key:
[1] = excess molar enthalpy (molar enthalpy of mixing); xn = mol fraction of the nth substance listed; conditions: 298.15 K, 101.3 kPa, Liquid
[2] = 298.15 K; 101.33 kPa; Liquid

Question: Which excess molar enthalpy ([1]; x1 = 0.1005) does the source give for `CC(=O)CC(C)C` [4-methylpentan-2-one] + CCCCO here?
Answer: 0.124 ± 0.00287 kcal/mol

Question: And the excess molar enthalpy ([1]; x1 = 0.1998)?
Answer: 0.212 ± 0.00478 kcal/mol

Question: What about the excess molar enthalpy ([1]; x1 = 0.2999) of the same compound?
Answer: 0.272 ± 0.00598 kcal/mol

Question: What about the excess molar enthalpy ([1]; x1 = 0.3967) of the same compound?
Answer: 0.312 ± 0.00669 kcal/mol

Question: And the excess molar enthalpy ([1]; x1 = 0.3996)?
Answer: 0.309 ± 0.00669 kcal/mol

Question: What about the excess molar enthalpy ([1]; x1 = 0.4967) of the same compound?
Answer: 0.331 ± 0.00717 kcal/mol

Question: And the excess molar enthalpy ([1]; x1 = 0.5978)?
Answer: 0.326 ± 0.00693 kcal/mol

Question: And the excess molar enthalpy ([1]; x1 = 0.6981)?
Answer: 0.297 ± 0.00645 kcal/mol

Question: And the excess molar enthalpy ([1]; x1 = 0.7978)?
Answer: 0.238 ± 0.00526 kcal/mol

Question: What about the excess molar enthalpy ([1]; x1 = 0.9006) of the same compound?
Answer: 0.14 ± 0.00335 kcal/mol

Question: For `CO` [methanol], which mass density [2] is on record?
Answer: 786.5 ± 0.61 kg/m3

Question: For `CC(=O)CC(C)C` [4-methylpentan-2-one] + CO, which excess molar enthalpy ([1]; x1 = 0.0523) is on record?
Answer: 0.034 ± 0.00232 kcal/mol

Question: What about the excess molar enthalpy ([1]; x1 = 0.0998) of the same compound?
Answer: 0.0604 ± 0.00335 kcal/mol

Question: What about the excess molar enthalpy ([1]; x1 = 0.1502) of the same compound?
Answer: 0.0839 ± 0.0043 kcal/mol

Question: And the excess molar enthalpy ([1]; x1 = 0.2002)?
Answer: 0.105 ± 0.00526 kcal/mol

Question: What about the excess molar enthalpy ([1]; x1 = 0.2495) of the same compound?
Answer: 0.126 ± 0.00598 kcal/mol

Question: And the excess molar enthalpy ([1]; x1 = 0.2954)?
Answer: 0.159 ± 0.00741 kcal/mol

Question: What about the excess molar enthalpy ([1]; x1 = 0.4019) of the same compound?
Answer: 0.192 ± 0.0086 kcal/mol

Question: What about the excess molar enthalpy ([1]; x1 = 0.5037) of the same compound?
Answer: 0.209 ± 0.00932 kcal/mol

Question: And the excess molar enthalpy ([1]; x1 = 0.6059)?
Answer: 0.211 ± 0.00932 kcal/mol

Question: What about the excess molar enthalpy ([1]; x1 = 0.707) of the same compound?
Answer: 0.195 ± 0.00884 kcal/mol

Question: And the excess molar enthalpy ([1]; x1 = 0.8119)?
Answer: 0.155 ± 0.00717 kcal/mol

Question: And the excess molar enthalpy ([1]; x1 = 0.908)?
Answer: 0.0917 ± 0.00454 kcal/mol

Question: Which results are given for `CC(=O)CC(C)C` [4-methylpentan-2-one] + CCCCCCO?
Answer: excess molar enthalpy ([1]; x1 = 0.0995): 0.134 ± 0.00311 kcal/mol; excess molar enthalpy ([1]; x1 = 0.2004): 0.234 ± 0.00526 kcal/mol; excess molar enthalpy ([1]; x1 = 0.3015): 0.302 ± 0.00645 kcal/mol; excess molar enthalpy ([1]; x1 = 0.4029): 0.344 ± 0.00741 kcal/mol; excess molar enthalpy ([1]; x1 = 0.5082): 0.361 ± 0.00765 kcal/mol; excess molar enthalpy ([1]; x1 = 0.5096): 0.36 ± 0.00765 kcal/mol; excess molar enthalpy ([1]; x1 = 0.6091): 0.35 ± 0.00741 kcal/mol; excess molar enthalpy ([1]; x1 = 0.7086): 0.313 ± 0.00669 kcal/mol; excess molar enthalpy ([1]; x1 = 0.8049): 0.248 ± 0.0055 kcal/mol; excess molar enthalpy ([1]; x1 = 0.903): 0.144 ± 0.00335 kcal/mol

Question: Which results are given for `CC(=O)CC(C)C` [4-methylpentan-2-one] + CCCCCO?
Answer: excess molar enthalpy ([1]; x1 = 0.1008): 0.13 ± 0.00311 kcal/mol; excess molar enthalpy ([1]; x1 = 0.2043): 0.224 ± 0.00502 kcal/mol; excess molar enthalpy ([1]; x1 = 0.304): 0.286 ± 0.00621 kcal/mol; excess molar enthalpy ([1]; x1 = 0.403): 0.322 ± 0.00693 kcal/mol; excess molar enthalpy ([1]; x1 = 0.4035): 0.324 ± 0.00693 kcal/mol; excess molar enthalpy ([1]; x1 = 0.503): 0.341 ± 0.00717 kcal/mol; excess molar enthalpy ([1]; x1 = 0.5035): 0.337 ± 0.00717 kcal/mol; excess molar enthalpy ([1]; x1 = 0.6017): 0.334 ± 0.00717 kcal/mol; excess molar enthalpy ([1]; x1 = 0.7007): 0.303 ± 0.00645 kcal/mol; excess molar enthalpy ([1]; x1 = 0.7996): 0.242 ± 0.00526 kcal/mol; excess molar enthalpy ([1]; x1 = 0.9002): 0.144 ± 0.00335 kcal/mol

Question: What does the source list for `CC(=O)CC(C)C` [4-methylpentan-2-one] + CCO?
Answer: excess molar enthalpy ([1]; x1 = 0.0772): 0.0649 ± 0.00179 kcal/mol; excess molar enthalpy ([1]; x1 = 0.1571): 0.122 ± 0.00287 kcal/mol; excess molar enthalpy ([1]; x1 = 0.2369): 0.169 ± 0.00382 kcal/mol; excess molar enthalpy ([1]; x1 = 0.2947): 0.208 ± 0.00454 kcal/mol; excess molar enthalpy ([1]; x1 = 0.3977): 0.251 ± 0.0055 kcal/mol; excess molar enthalpy ([1]; x1 = 0.5): 0.279 ± 0.00598 kcal/mol; excess molar enthalpy ([1]; x1 = 0.5995): 0.287 ± 0.00621 kcal/mol; excess molar enthalpy ([1]; x1 = 0.6981): 0.273 ± 0.00598 kcal/mol; excess molar enthalpy ([1]; x1 = 0.7954): 0.232 ± 0.00502 kcal/mol; excess molar enthalpy ([1]; x1 = 0.897): 0.149 ± 0.00359 kcal/mol

Question: With `CCCO` [propan-1-ol] as the compound, how does the mass density [2] read?
Answer: 799.51 ± 0.57 kg/m3

Question: With `CC(=O)CC(C)C` [4-methylpentan-2-one] as the compound, how does the mass density [2] read?
Answer: 796.19 ± 0.63 kg/m3

Question: Which mass density [2] does the source give for `CCCCCCO` [hexan-1-ol] here?
Answer: 815.2 ± 0.99 kg/m3

Question: Which mass density [2] does the source give for `CCCCO` [butan-1-ol] here?
Answer: 805.75 ± 0.69 kg/m3

Question: For `CCO` [ethanol], which mass density [2] is on record?
Answer: 785.15 ± 0.58 kg/m3

Question: Which results are given for `CC(=O)CC(C)C` [4-methylpentan-2-one] + CCCO?
Answer: excess molar enthalpy ([1]; x1 = 0.0797): 0.0934 ± 0.00237 kcal/mol; excess molar enthalpy ([1]; x1 = 0.1587): 0.164 ± 0.00382 kcal/mol; excess molar enthalpy ([1]; x1 = 0.2384): 0.22 ± 0.00478 kcal/mol; excess molar enthalpy ([1]; x1 = 0.3192): 0.262 ± 0.00574 kcal/mol; excess molar enthalpy ([1]; x1 = 0.3901): 0.29 ± 0.00621 kcal/mol; excess molar enthalpy ([1]; x1 = 0.4948): 0.31 ± 0.00669 kcal/mol; excess molar enthalpy ([1]; x1 = 0.5955): 0.307 ± 0.00669 kcal/mol; excess molar enthalpy ([1]; x1 = 0.6981): 0.281 ± 0.00598 kcal/mol; excess molar enthalpy ([1]; x1 = 0.8004): 0.225 ± 0.00502 kcal/mol; excess molar enthalpy ([1]; x1 = 0.9012): 0.135 ± 0.00311 kcal/mol

Question: With `CCCCCO` [pentan-1-ol] as the compound, how does the mass density [2] read?
Answer: 810.88 ± 0.99 kg/m3
